Values of other authors, collected in US6583130B1, “C13-substituted estra-1,3,5,(10)-trien-3-yl sulfamates, methods of preparing same, and pharmaceutical compositions containing these compounds” (Schering AG, priority 1999, dated 2003).

How the values were obtained:
sulfatase = biological target: T1, sulfatase (Homo sapiens, UniProt P08842); conditions: as described in the cited literature
T1 sequence (P08842 22-583): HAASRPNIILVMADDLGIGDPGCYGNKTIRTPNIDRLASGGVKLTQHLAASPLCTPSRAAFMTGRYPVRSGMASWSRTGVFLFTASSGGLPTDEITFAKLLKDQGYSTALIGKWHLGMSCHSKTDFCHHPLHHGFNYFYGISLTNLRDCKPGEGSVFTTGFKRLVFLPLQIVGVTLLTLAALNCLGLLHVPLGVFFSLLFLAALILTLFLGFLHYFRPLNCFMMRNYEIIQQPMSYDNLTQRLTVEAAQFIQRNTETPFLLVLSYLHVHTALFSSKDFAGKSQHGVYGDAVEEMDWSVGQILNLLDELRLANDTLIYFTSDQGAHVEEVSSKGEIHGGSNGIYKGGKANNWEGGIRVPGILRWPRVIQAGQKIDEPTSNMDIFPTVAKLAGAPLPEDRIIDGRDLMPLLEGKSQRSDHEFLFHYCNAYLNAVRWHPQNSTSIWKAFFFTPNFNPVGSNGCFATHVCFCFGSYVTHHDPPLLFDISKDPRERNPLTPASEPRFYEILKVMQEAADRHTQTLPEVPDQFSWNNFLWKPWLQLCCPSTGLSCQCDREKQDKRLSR

uterine growth = conditions: ovariectomized rats; Purohit et al. 1998
estrogenic effect = conditions: as described in the cited literature (Elger et al. 1995; WO 97/14712)

Compound	sulfatase inhibition (sulfatase)	estrogenic effect on uterine growth (uterine growth)	estrogenic effect (estrogenic effect)
COc1cc2c(cc1OS(N)(=O)=O)CC[C@@H]1[C@@H]2CC[C@]2(C)C(=O)CC[C@@H]12 [2-methoxyestrone 3-O-sulfamate]	potent sulfatase inhibitor	does not exhibit any estrogenic effect	–
CC(=O)NS(=O)(=O)Oc1ccc2c(c1)CC[C@@H]1[C@@H]2CC[C@]2(C)C(=O)CC[C@@H]12 [N-acetylestrone 3-O-sulfamate]	sulfatase inhibitor	–	strong estrogenic effect
C[C@]12CC[C@@H]3c4ccc(OS(N)(=O)=O)cc4CC[C@H]3[C@@H]1CCC2=O [estrone 3-O-sulfamate]	strong sulfatase inhibitor	–	strong estrogenic effect
